The source of these data is patent publication US20160000721A1, “GASTRO-RETENTIVE FORMULATIONS” (priority 2012, published 2016).

Data set [1] in a line: Aqueous solubility of raltegravir at given pH. The class given is physicochemical. The text has this:
In one embodiment of the invention, the drug is raltegravir or pharmaceutically acceptable salt thereof. Raltegravir (N-(4-fluorobenzyl)-5-hydroxy-1-methyl-2-(1-methyl-1-{[(5-methyl-1,3,4-oxadiazol-2-yl)carbonyl]amino}ethyl)-6-oxo-1,6-dihydropyrimidine-4-carboxamide) belongs to a novel class of anti-retroviral drugs indicated for the treatment of human immunodeficiency virus (HIV-1) known as integrase strand inhibitors. See, e.g., U.S. Pat. No. 7,169,780. More particularly preferred is the anhydrous crystalline potassium salt of raltegravir, which is characterized by an X-ray powder diffraction pattern obtained using copper Kα radiation which comprises 2Θ values in degrees of 5.9, 20.0 and 20.6. See U.S. Pat. No. 7,754,731, herein incorporated by reference in its entirety. This form of raltegravir is the active pharmaceutical ingredient (API) in […]® tablets.

For data set [2] the following is noted: in vivo; cited from earlier work.

Values after ≈ are worked out from the molar mass of the structure shown.

For the molecule `Cc1nnc(C(=O)NC(C)(C)c2nc(C(=O)NCc3ccc(F)cc3)c(O)c(=O)n2C)o1` [Raltegravir, N-(4-fluorobenzyl)-5-hydroxy-1-methyl-2-(1-methyl-1-{[(5-methyl-1,3,4-oxadiazol-2-yl)carbonyl]amino}ethyl)-6-oxo-1,6-dihydropyrimidine-4-carboxamide], the concentration in solution in data set [1] (aqueous buffer, pH range of 1-6) (solubility) came to 20 µg/mL (≈ 45 µM). In data set [1] (pH 6.8, aqueous buffer), the concentration in solution (solubility) was 480 µg/mL (≈ 1080 µM). In data set [2], the terminal half-life result is given as “approximately 9 hours” and the α-phase half-life result is given as “approximately 1 hour”.
